Laboratory results reported in patent US9226919B2, “Methods for dosing an orally active 1,2,4-oxadiazole” (PTC Therapeutics, Inc., priority 2006, dated 2016).

Tests used:
cough = test: Quantitative cough assessment (LifeShirt), mean cough frequency over 24 hours; format: in vivo, human; settings: FIG. 2; initial improvement, temporary increase, then overall improvement
Experimental: FIG. 2 provides the effect on mean cough frequency over 24 hours by the administration of 3-[5-(2-fluoro-phenyl)-[1,2,4]oxadiazol-3-yl]-benzoic acid to a subject.
The VivoMetrics, Inc. LifeShirt® incorporates motion-sensing transducers, electrodes, a throat microphone, calibration bag, and a 3-axis accelerometer into a lightweight, washable vest that is available for patients≧5 years of age (see LifeShirt® Monitoring System QuickStart Guide, incorporated by reference herein in its entirety). Using integrated input from the motion sensors and microphone, the frequency and intensity of cough can be measured. […]
The device was used to obtain the data set forth in FIG. 2 and will be used to offer substantial supplementary data regarding the clinical benefits of 3-[5-(2-fluoro-phenyl)-[1,2,4]oxadiazol-3-yl]-benzoic acid during Phase 3 testing in CF. […] Without being limited by theory, based on the hypothesis that 3-[5-(2-fluoro-phenyl)-[1,2,4]oxadiazol-3-yl]-benzoic acid-mediated induction of CFTR function would reduce airway obstruction and inflammation, a decrease in cough frequency could serve as a symptomatic integration of these pharmacological effects and might offer a more accurate and quantitative assessment than verbal patient reporting.

dystrophin = test: In vitro myotube culture of patients' primary muscle cells, dystrophin expression; format: cell-based, human
Experimental: Studies are performed on muscle tissue and skin from patients to determine whether dystrophin production in primary muscle cultures from the patients corresponds with dystrophin production in vivo. […] Correlations of skin cell response with clinical activity may offer an easy-to-obtain predictive test in selecting future patients for therapy or for screening new agents for the treatment of DMD. Cells are cultured as follows. Biopsy material is stored during transport in human proliferation medium (or PBS), and on ice for longer time periods if necessary. If the tissue is not prepared within 24 hours, the material can be frozen in human proliferation medium containing 10% DMSO and stored in liquid nitrogen (or dry ice). At the time the tissue is to be prepared for setting up the myoblast culture, biopsy material is washed in PBS. PBS sufficient to keep the tissue moist is added into a culture dish. The biopsy material is minced thoroughly with razor blades, toward an almost homogeneous suspension. Approximately 2 ml of collegenase/dispase/CaCl2 solution per gram of tissue is added and mincing is continued for several minutes (e.g. for a muscle biopsy of 5×5×5 mm use 1 ml of enzyme solution). […] The myogenic cell content of the culture is determined by performing a desmin-staining. […]

## O=C(O)c1cccc(-c2noc(-c3ccccc3F)n2)c1 [3-[5-(2-fluoro-phenyl)-[1,2,4]oxadiazol-3-yl]-benzoic acid]
cough
  Mean cough frequency over 24 hours: overall improvement in mean cough frequency
dystrophin; cultured in the presence of the compound
  Dystrophin expression in myotube cultures: dose-dependent increase in dystrophin expression
dystrophin; myotube culture of pre-treatment primary muscle cells of individual DMD patients
  In Vitro Expression Response (dystrophin): Yes
